Laboratory results as given in patent US10441548B2, “Aggregating microparticles for medical therapy” (GRAYBUG VISION, INC., priority 2015, dated 2019).

Assay: Acute non-GLP IVT ocular tolerability and toxicity study of sunitinib malate (free drug)
Assay type: in vivo, pigmented rabbits
Details: single bilateral IVT injection in PBS, up to 7 days
Protocol: An acute, non-GLP IVT study was conducted to evaluate the ocular tolerability and toxicity of sunitinib malate (free drug) for up to 7 days following a single IVT injection. Sunitinib malate was formulated in phosphate buffered saline and injected bilaterally (0.1 mL) at 0.125 or 1.25 mg per eye.
FIG. 13A, FIG. 13B, and FIG. 13C illustrate select PK profiles for sunitinib malate in the retina, vitreous, and plasma, respectively, from pigmented rabbits.

CCN(CC)CCNC(=O)c1c(C)[nH]c(/C=C2\C(=O)Nc3ccc(F)cc32)c1C [sunitinib malate]
no-observed-adverse-effect-level (NOAEL) dose: 0.125 mg/eye
